The subject of this experiment is HCT-116. The experiment is described as follows: Cytotoxicity against human HCT116 cells after 72 hrs by MTS/PMS assay. The format is functional, cell-based. As to conditions: HCT-116, 72 h.

For orientation: IC50 means the concentration that inhibits the measured activity by half. The low end stands for inhibition by little substance, the high end for a need for much substance. `CO/C(=C\c1ccc(O)cc1)C(=O)N/C=C/c1cc(Br)c(OC)c(Br)c1` [BOTRYLLAMIDE A] gave an IC50 of 33 µM.

`CO/C(=C\c1ccc(O)cc1)C(=O)N/C=C/c1ccc(OC)c(Br)c1` [BOTRYLLAMIDE C]: the IC50 turned out to be 28 µM.

In the case of `CO/C(=C\c1ccc(O)cc1)C(=O)N/C=C/c1ccc(OC)cc1` [BOTRYLLAMIDE E], the IC50 was determined as 30 µM.

In the case of `CO/C(=C\c1ccc(O)cc1)C(=O)N/C=C/c1ccc(O)cc1` [BOTRYLLAMIDE F], the IC50 came to 85 µM. This IC50 lies about 2.8-fold higher than the previous one.

In turn, `CO/C(=C\c1ccc(O)cc1)C(=O)N/C=C/c1cc(Br)c(O)c(Br)c1` [BOTRYLLAMIDE G] had an IC50 of 110 µM.

The values above are taken from ChEMBL document CHEMBL1148155, “Botryllamides E-H, four new tyrosine derivatives from the ascidian Botrylloides tyreum” (J Nat Prod, 2004).
